# Source: PubChem BioAssay AID280 (DTP/NCI, 2004)
# Several values for one entry are separate records, joined by “and”; a condition that tells them apart may be missing. Identical values can stand only once. Inconclusive results and toxic doses are left out.
# Test system: nude mice, LOX melanoma ip, survival T/C
# Test: NCI In Vivo Anticancer Drug Screen. Data for tumor model Human Amelanotic Melanoma (LOX) (intraperitoneal) in NU/NU BALB/C (nude) mice
# Details: endpoint: median survival time, higher = longer survival
# Experimental: The antitumor activity of compounds was measured in mice bearing transplantable tumors. Survival or tumor size were measured and the results are expressed as the measurement made in the treated group (T) divided by the measurement made in the vehicle treated control group (C). The tumor model used in this assay is Human Amelanotic Melanoma (LOX) (intraperitoneal) in NU/NU BALB/C (nude) mice
# [1] = dose: 12.5 mg/kg/injection, schedule: Q04DX003 (ip), vehicle: water
# [2] = dose: 50.0 mg/kg/injection, schedule: Q04DX003 (ip), vehicle: water
# [3] = dose: 150.0 mg/kg/injection, schedule: Q04DX003 (ip), vehicle: saline with Tween-80
compound,measurement,setting,value
O=NNc1cnccn1,T/C,"dose: 11.3 mg/kg/injection, schedule: Q01DX009 (ip), vehicle: other",110 % of control
same,T/C,"dose: 11.3 mg/kg/injection, schedule: Q03HX008 (ip), vehicle: other",117 % of control
same,T/C,[1],110 % of control
same,T/C,"dose: 16.9 mg/kg/injection, schedule: Q01DX005 (iv), vehicle: other",97 % of control
same,T/C,"dose: 16.9 mg/kg/injection, schedule: Q01DX009 (ip), vehicle: other",153 % of control
same,T/C,"dose: 25.3 mg/kg/injection, schedule: Q01DX009 (ip), vehicle: other",175 % of control
same,T/C,"dose: 25.3 mg/kg/injection, schedule: Q03HX008 (ip), vehicle: other",159 % of control
same,T/C,"dose: 29.7 mg/kg/injection, schedule: Q04DX003 (ip), vehicle: water",201 % of control
same,T/C,"dose: 38.0 mg/kg/injection, schedule: Q01DX005 (iv), vehicle: other",153 % of control
same,T/C,"dose: 38.0 mg/kg/injection, schedule: Q01DX009 (ip), vehicle: other",189 % of control
same,T/C,"dose: 38.0 mg/kg/injection, schedule: Q04DX003 (iv), vehicle: other",123 % of control
same,T/C,"dose: 44.5 mg/kg/injection, schedule: Q04DX003 (ip), vehicle: water",180 % of control and 189 % of control
same,T/C,[2],156 % of control
same,T/C,"dose: 57.0 mg/kg/injection, schedule: Q01DX001 (ip), vehicle: other",116 % of control
same,T/C,"dose: 57.0 mg/kg/injection, schedule: Q01DX001 (iv), vehicle: other",115 % of control
same,T/C,"dose: 57.0 mg/kg/injection, schedule: Q01DX005 (iv), vehicle: other",191 % of control
same,T/C,"dose: 57.0 mg/kg/injection, schedule: Q01DX009 (ip), vehicle: other",220 % of control
same,T/C,"dose: 57.0 mg/kg/injection, schedule: Q04DX003 (ip), vehicle: other",170 % of control
same,T/C,"dose: 57.0 mg/kg/injection, schedule: Q04DX003 (iv), vehicle: other",154 % of control
same,T/C,"dose: 66.7 mg/kg/injection, schedule: Q04DX003 (ip), vehicle: water",200 % of control and 221 % of control
same,T/C,"dose: 85.4 mg/kg/injection, schedule: Q01DX001 (iv), vehicle: other",120 % of control
same,T/C,"dose: 85.4 mg/kg/injection, schedule: Q04DX003 (ip), vehicle: other",185 % of control
same,T/C,"dose: 85.4 mg/kg/injection, schedule: Q04DX003 (iv), vehicle: other",159 % of control
same,T/C,"dose: 85.4 mg/kg/injection, schedule: Q08DX002 (ip), vehicle: other",150 % of control
same,T/C,"dose: 100.0 mg/kg/injection, schedule: Q04DX003 (ip), vehicle: water",232 % of control and 250 % of control and 301 % of control
same,T/C,"dose: 128.0 mg/kg/injection, schedule: Q01DX001 (ip), vehicle: other",170 % of control
same,T/C,"dose: 128.0 mg/kg/injection, schedule: Q04DX003 (ip), vehicle: other",170 % of control
same,T/C,"dose: 128.0 mg/kg/injection, schedule: Q04DX003 (iv), vehicle: other",91 % of control
same,T/C,"dose: 128.0 mg/kg/injection, schedule: Q08DX002 (ip), vehicle: other",180 % of control
same,T/C,"dose: 150.0 mg/kg/injection, schedule: Q04DX003 (ip), vehicle: water",248 % of control and 296 % of control
same,T/C,"dose: 192.0 mg/kg/injection, schedule: Q01DX001 (ip), vehicle: other",180 % of control
same,T/C,"dose: 192.0 mg/kg/injection, schedule: Q08DX002 (ip), vehicle: other",300 % of control
same,T/C,"dose: 200.0 mg/kg/injection, schedule: Q04DX003 (ip), vehicle: water",121 % of control
CC(O)C1(O)C(O)CC(OC2c3cc4c(c(O)c3[C@@H]3C[C@@]2(C)OC32C=c3cc[nH]c3=N2)C(=O)c2cccc(O)c2C4=O)OC1C (stereo partly drawn),T/C,"dose: 3.75 mg/kg/injection, schedule: Q04DX003 (ip), vehicle: saline with Tween-80",108 % of control
same,T/C,"dose: 7.5 mg/kg/injection, schedule: Q04DX003 (ip), vehicle: saline with Tween-80",112 % of control
same,T/C,"dose: 15.0 mg/kg/injection, schedule: Q04DX003 (ip), vehicle: saline with Tween-80",117 % of control
same,T/C,"dose: 30.0 mg/kg/injection, schedule: Q04DX003 (ip), vehicle: saline with Tween-80",117 % of control
same,T/C,"dose: 60.0 mg/kg/injection, schedule: Q04DX003 (ip), vehicle: saline with Tween-80",91 % of control
O=C1c2cccc(NCCCNCCO)c2C(=O)c2cccc(NCCCNCCO)c21,T/C,"dose: 4.69 mg/kg/injection, schedule: Q04DX003 (ip), vehicle: saline",116 % of control
same,T/C,"dose: 6.75 mg/kg/injection, schedule: Q04DX003 (ip), vehicle: acid diluted with saline",113 % of control and 97 % of control
same,T/C,"dose: 9.38 mg/kg/injection, schedule: Q04DX003 (ip), vehicle: saline",124 % of control
same,T/C,"dose: 11.0 mg/kg/injection, schedule: Q04DX003 (ip), vehicle: acid diluted with saline",117 % of control
same,T/C,"dose: 11.25 mg/kg/injection, schedule: Q04DX003 (ip), vehicle: acid diluted with saline",97 % of control
same,T/C,"dose: 18.7 mg/kg/injection, schedule: Q04DX003 (ip), vehicle: acid diluted with saline",111 % of control
same,T/C,"dose: 18.75 mg/kg/injection, schedule: Q04DX003 (ip), vehicle: acid diluted with saline",106 % of control
same,T/C,"dose: 31.25 mg/kg/injection, schedule: Q04DX003 (ip), vehicle: acid diluted with saline",112 % of control
same,T/C,"dose: 37.5 mg/kg/injection, schedule: Q04DX003 (ip), vehicle: saline",105 % of control
same,T/C,"dose: 75.0 mg/kg/injection, schedule: Q04DX003 (ip), vehicle: saline",86 % of control
CCC1(O)C(=O)OCc2c1cc1n(c2=O)Cc2cc3cc(N)ccc3nc2-1 (stereo not drawn),T/C,"dose: 3.75 mg/kg/injection, schedule: Q04DX003 (ip), vehicle: suspension in saline",324 % of control
same,T/C,"dose: 4.0 mg/kg/injection, schedule: Q04DX003 (ip), vehicle: saline",189 % of control
same,T/C,"dose: 7.0 mg/kg/injection, schedule: Q04DX003 (ip), vehicle: saline",355 % of control
same,T/C,"dose: 7.5 mg/kg/injection, schedule: Q04DX003 (ip), vehicle: suspension in saline",324 % of control
same,T/C,"dose: 12.0 mg/kg/injection, schedule: Q04DX003 (ip), vehicle: saline",355 % of control
same,T/C,"dose: 15.0 mg/kg/injection, schedule: Q04DX003 (ip), vehicle: suspension in saline",324 % of control
same,T/C,"dose: 20.0 mg/kg/injection, schedule: Q04DX003 (ip), vehicle: saline",355 % of control
same,T/C,"dose: 33.0 mg/kg/injection, schedule: Q04DX003 (ip), vehicle: saline",355 % of control
COc1ccc2c(ccc3oc([N+](=O)[O-])cc32)c1,T/C,"dose: 100.0 mg/kg/injection, schedule: Q04DX003 (ip), vehicle: Klucel (hydroxypropylcellulose) (HPC)",121 % of control
same,T/C,"dose: 120.0 mg/kg/injection, schedule: Q04DX003 (ip), vehicle: Klucel (hydroxypropylcellulose) (HPC)",170 % of control
same,T/C,"dose: 400.0 mg/kg/injection, schedule: Q04DX003 (ip), vehicle: Klucel (hydroxypropylcellulose) (HPC)",86 % of control
COc1cc(C(C)c2cc3c(cc2OCCO)OCO3)cc(OC)c1OC (stereo not drawn),T/C,"dose: 75.0 mg/kg/injection, schedule: Q04DX003 (ip), vehicle: saline with Tween-80",114 % of control
same,T/C,[3],94 % of control
same,T/C,"dose: 600.0 mg/kg/injection, schedule: Q04DX003 (ip), vehicle: saline with Tween-80",152 % of control
COc1cc2c[n+](C)c3c(c2cc1OC)Cc1cc2c(cc1-3)OCO2,T/C,"dose: 18.75 mg/kg/injection, schedule: Q04DX003 (ip), vehicle: saline with Tween-80",108 % of control
same,T/C,[3],201 % of control
O=C(O)c1cc(C(=O)O)c(C(=O)O)cc1C(=O)O.[NH2-].[NH2-].[NH2-].[NH2-].[Pt+2].[Pt+2],T/C,"dose: 6.25 mg/kg/injection, schedule: Q04DX003 (ip), vehicle: water",89 % of control
same,T/C,[1],104 % of control
same,T/C,"dose: 25.0 mg/kg/injection, schedule: Q04DX003 (ip), vehicle: water",115 % of control
same,T/C,[2],115 % of control
CCS/C(SC)=C(/c1ccccc1)[P+](c1ccccc1)(c1ccccc1)c1ccccc1,T/C,"dose: 0.81 mg/kg/injection, schedule: Q04DX003 (ip), vehicle: Klucel (hydroxypropylcellulose) (HPC)",106 % of control
same,T/C,"dose: 1.35 mg/kg/injection, schedule: Q04DX003 (ip), vehicle: Klucel (hydroxypropylcellulose) (HPC)",106 % of control
same,T/C,"dose: 2.25 mg/kg/injection, schedule: Q04DX003 (ip), vehicle: Klucel (hydroxypropylcellulose) (HPC)",118 % of control
same,T/C,"dose: 3.12 mg/kg/injection, schedule: Q04DX003 (ip), vehicle: Klucel (hydroxypropylcellulose) (HPC)",95 % of control
same,T/C,"dose: 3.76 mg/kg/injection, schedule: Q04DX003 (ip), vehicle: Klucel (hydroxypropylcellulose) (HPC)",100 % of control
same,T/C,"dose: 6.25 mg/kg/injection, schedule: Q04DX003 (ip), vehicle: Klucel (hydroxypropylcellulose) (HPC)",94 % of control
N/C(=N\OC(=O)Nc1ccc(CSc2ccc(Cl)cc2)o1)c1ccccn1,T/C,"dose: 18.75 mg/kg/injection, schedule: Q04DX003 (ip), vehicle: Klucel (hydroxypropylcellulose) (HPC)",97 % of control
same,T/C,"dose: 37.5 mg/kg/injection, schedule: Q04DX003 (ip), vehicle: Klucel (hydroxypropylcellulose) (HPC)",97 % of control
same,T/C,"dose: 75.0 mg/kg/injection, schedule: Q04DX003 (ip), vehicle: Klucel (hydroxypropylcellulose) (HPC)",92 % of control
same,T/C,"dose: 150.0 mg/kg/injection, schedule: Q04DX003 (ip), vehicle: Klucel (hydroxypropylcellulose) (HPC)",102 % of control
